Bridge positions count the residues as written; N and C are the ends. Peptide text beside a SMILES is read from it.
What was measured:
[1] = stability of linaclotide compositions with formaldehyde scavenger compounds, Cys1-IMD by RP-HPLC; format: physicochemical; settings: 40° C., 75% relative humidity; for % Cys1-IMD after storage 4 Weeks / % Cys1-IMD after storage 8 Weeks / % Cys1-IMD after storage 13 Week: percent of chromatogram area, labeled canister (formaldehyde stressor); for % decrease in Cys1-IMD as compared to negative control (after 13 weeks) / % Cys1-IMD after storage 13 Week: 13 weeks
Experimental: 60 cc square HPDE bottle (with 33 mm caps with induction seals) were loaded with (i) capsules containing beads coated with 145 μg or 290 μg of linaclotide, a binder, calcium chloride and leucine with an approximate molar ratio of CaCl2:leucine:linaclotide of 60:30:1, (ii) either no formaldehyde scavenger compound (negative control) or a canister comprising one of the formaldehyde scavenger compounds disclosed in Table 3, and (iii) optionally a canister containing 3 grams of a silica gel desiccant.
In addition, some of the linaclotide compositions contained a formaldehyde stressor (in particular, an adhesive label on the desiccant canister that was applied by the manufacturer of the desiccant canister (Sud Chemie) (its presence in some linaclotide compositions is indicated in the table as “labeled canister”). Regarding the formaldehyde stressor canister, it was observed by applicants that the canister emits about 27.5 ug of formaldehyde in 24 hours at 60° C.
The linaclotide compositions were stored in a 40° C., 75% relative humidity stability chamber. Next, the quantity of Cys1-IMD in each linaclotide composition was determined following 4, 8 and 13 week storage via Reverse Phase-HPLC using a gradient elution with UV detection at 220 nm. Quantitation was based on percent of chromatogram area.
Test samples of linaclotide capsules are prepared by emptying the bead contents into flasks, adding diluent and shaking for 30 minutes. The analysis used the bead contents of a composite of 6 or 8 capsules (for 290 μg and 145 μg, respectively). Operating conditions for the analytical test method by HPLC are outlined in Table 2.

[2] = test system: adult patients with IBS-C; assay: double-blind placebo-controlled studies in IBS-C (Study 1 and Study 2); format: in vivo, human; settings: 290 mcg discontinued
Experimental: In this regard, the efficacy of oral dosage forms comprising […] for the management of IBS-C was established in two double-blind, placebo-controlled, randomized, multicenter studies in adult patients. A total of 800 patients in Study 1 and 804 patients in Study 2 (overall mean age of 43.9 years [range 18-87 years with 5.3% ≧65 years of age], 90.1% female, 77.4% white, 18.8% black, and 12.0% Hispanic) received treatment with LINZESS 290 mcg or placebo once daily and were evaluated for efficacy. All patients met Rome II criteria for IBS and were required to report a mean abdominal pain score of ≧3 on a 0-to-10-point numeric rating scale, <3 complete spontaneous bowel movements (CSBMs; a CSBM is a spontaneous bowel movement [SBM] that is associated with a sense of complete evacuation; an SBM is a bowel movement occurring in the absence of laxative use), and ≦5 SBMs per week during a 2-week baseline period. The study designs were identical through the first 12 weeks, and thereafter differed only in that Study 1 included a 4-week randomized withdrawal (RW) period, and Study 2 continued for 14 additional weeks (total of 26 weeks) of double-blinded treatment.
Efficacy of the oral dosage form of linaclotide was assessed using responder and change-from-baseline endpoints. Results for endpoints were based on information provided daily by patients. […]

Structure (SMILES)	% Cys1-IMD after storage 4 Weeks [1] [%]	% Cys1-IMD after storage 8 Weeks [1] [%]	% decrease in Cys1-IMD as compared to negative control (after 13 weeks) [1] [%]	% Cys1-IMD after storage 13 Week [1] [%]	rebound of bowel symptoms after discontinuation (4-week RW period) [2]
CNC[C@H](O)[C@@H](O)[C@H](O)[C@H](O)CO [d-meglumine]	0.59	0.81	−76	0.84	–
NCC(=O)NCC(=O)O [glycine-glycine] (H-Gly-Gly-OH)	0.89	1.40	−44	1.98	–
C[C@@H]1NC(=O)[C@@H]2CCCN2C(=O)[C@H](CC(N)=O)NC(=O)[C@@H]2CSSC[C@H](N)C(=O)N[C@H]3CSSC[C@H](NC1=O)C(=O)N[C@@H]([C@@H](C)O)C(=O)NCC(=O)N[C@H](C(=O)N[C@@H](Cc1ccc(O)cc1)C(=O)O)CSSC[C@H](NC(=O)[C@H](Cc1ccc(O)cc1)NC(=O)[C@H](CCC(=O)O)NC3=O)C(=O)N2 [linaclotide] (H-CCEYCCNPACTGCY-OH; disulfide 1-6, 2-10, 5-13 (inferred); N-terminus and C-terminus assumed)	–	–	–	–	no evidence of rebound worsening
NCCCC[C@H](N)C(=O)O [lysine]	0.87	1.27	−47	1.87	–

The next lines start with results.

% Cys1-IMD after storage 4 Weeks [1] [%]	% Cys1-IMD after storage 8 Weeks [1] [%]	% decrease in Cys1-IMD as compared to negative control (after 13 weeks) [1] [%]	% Cys1-IMD after storage 13 Week [1] [%]	Structure (SMILES)	rebound of bowel symptoms after discontinuation (4-week RW period) [2]
0.56	1.11	−59	1.45	NC(=O)C[C@H](N)C(=O)O [asparagine]	–
0.82	1.54	−27	2.58	COC(=O)[C@H](Cc1ccccc1)NC(=O)[C@@H](N)CC(=O)O [aspartame] (H-Asp-Phe-OMe)	–
0.60	0.68	−72	1.00	N[C@@H](Cc1c[nH]cn1)C(=O)O [histidine]	–
0.84	1.26	−31	2.44	CC(C)C[C@H](N)C(=O)O [leucine]	–
0.52	0.78	−61	1.36	CC(C)C[C@H](N)C(=O)O [lyophilized leucine, leucine]	–

From patent publication US9283261B2, “Linaclotide compositions” (Forest Laboratories Holdings Ltd., priority 2012, dated 2016)
